16 compounds from US7223776B2, “Compounds with anti-bacterial activity” (priority 2002, dated 2007) can be followed below.

The nature of the first experiment: Anti-bacterial activity: MHK measured against a panel of bacterial strains. Format: cell-based. Conditions: in relation to at least one of the listed strains (strain not specified); read-out: MHK. How it is done: The MHK (μg/ml) of those compounds was measured in relation to the following bacterial strains: S. aureus ATCC 29213, S. aureus 16, E. faecalis ATCC 29212, E. faecium vanA E25-1, H. influenzae 11, E. coli ATCC 25922, M. catarrhalis 117, S. pneumoniae ATCC 49619. Examples 5–6, 8, 11–16, 18–26, 30, 44–45, 47–58 have an MHK<=0.125 in relation to at least one of the listed strains.
In the case of `COc1ccc2nccc(C(O)CN3CCC[C@@H](CNCc4ccc5nsnc5c4)C3)c2c1` (mixture of isomers) [Example 6, (3S)-2-(3-{[(Benzo[1,2,5]thiadiazol-5-ylmethyl)-amino]-methyl}-piperidin-1-yl)-(1RS)-(6-methoxy-quinolin-4-yl)-ethanol], the MIC is at most 0.125 µg/mL.
On to `COc1ccc2nccc(C(O)CN3CCC[C@@H](CNCc4ccc5c(c4)NC(=O)CO5)C3)c2c1` (mixture of isomers) [Example 5, (3S)-6-[({1-[2-Hydroxy-2-(6-methoxy-quinolin-4-yl)-ethyl]-piperidin-(3RS)-ylmethyl}-amino)-methyl]-4H-benzo[1,4]oxazin-3-one], for which the MIC was at most 0.125 µg/mL.
For `COc1ccc2nccc(C(O)CN3CCC[C@@H](CNCc4ccc5c(c4)OCCCO5)C3)c2c1` (mixture of isomers) [Example 7], the MIC is at most 0.5 µg/mL.
Still for that read-out and setting: the same measure for `COc1ccc2nccc(C(O)CN3CCC[C@@H](CNCc4ccc5c(c4)OCO5)C3)c2c1` (mixture of isomers) [Example 9, 2-((3S)-{[(2,3-Dihydro-benzo[1,3]dioxo-6-ylmethyl)-amino]-methyl}-piperidin-1-yl)-(1RS)-(6-methoxy-quinolin-4-yl)-ethanol]: at most 0.5 µg/mL.
In the case of `COc1ccc2nccc(C(O)CN3CCCC(NCc4ccc5c(c4)OCCO5)CC3)c2c1` (racemic) [Example 34], the MIC is at most 0.5 µg/mL.
Regarding `COc1ccc2nccc(C(O)CN3CCOC(CNCc4ccc5c(c4)OCCO5)C3)c2c1` (racemic) [Example 61, 2-((2RS)-{[(2,3-Dihydro-benzo[1,4]dioxin-6-ylmethyl)-amino]-methyl}-morpholin-4-yl)-(1RS)-(6-methoxy-quinolin-4-yl)-ethanol], the MIC was at most 0.5 µg/mL.
On to `COc1ccc2nccc(CCC3CCC(NCc4ccc5c(c4)NC(=O)CO5)CC3)c2c1` (stereo not shown) [Example 30, 6-({4-[2-(6-Methoxy-quinolin-4-yl)-ethyl]-cyclohexylamino}-methyl)-4H-benzo[1,4]oxazin-3-one], for which the MIC was at most 0.125 µg/mL.
Still for that read-out and setting: the same measure for `COc1ccc2ncnc(OCC3CCC(NCc4ccc5c(c4)OCCO5)CC3)c2c1` (stereo not shown) [Example 42, (2,3-Dihydro-benzo[1,4]dioxin-6-ylmethyl)-[4-(6-methoxy-quinazolin-4-yloxymethyl)-cyclohexyl]-amine]: at most 0.5 µg/mL.
For the compound `COc1ccc2ncnc(OCC3CCC(NCc4cnc5ccccc5n4)CC3)c2c1` (stereo not shown) [Example 43, [4-(6-Methoxy-quinazolin-4-yloxymethyl)-cyclohexyl]-quinoxalin-2-ylmethyl-amine], the MIC is at most 0.5 µg/mL.
Take `COc1ccc2ncnc(OCC3CCC(NCc4ccc5c(c4)NC(=O)CO5)CC3)c2c1` (stereo not shown) [Example 44, 6-{[4-(6-Methoxy-quinazolin-4-yloxymethyl)-cyclohexylamino]-methyl}-4H-benzo[1,4]oxazin-3-one]: the MIC was at most 0.125 µg/mL.
On the same count and under the same terms, the same measure for `COc1ccc2ncnc(OCC3CCC(NC/C=C/c4ccccc4)CC3)c2c1` (stereo not shown) [Example 45, [4-(6-Methoxy-quinazolin-4-yloxymethyl)-cyclohexyl]-(3-phenyl-allyl)-amine]: at most 0.125 µg/mL.
`COc1ccc2ncnc(OCC3CCC(NCC(=O)Nc4ccccn4)CC3)c2c1` (stereo not shown) [Example 46, 2-[4-(6-Methoxy-quinazolin-4-yloxymethyl)-cyclohexylamino]-N-pyridin-2-yl-acetamide]: the MIC was at most 0.5 µg/mL.
The same measure, in the same setting: for `COc1ccc2nccc(C(O)CN3CCC=C(CNCc4ccc5c(c4)OCCO5)C3)c2c1` (stereo not shown) [Example 59, 2-(5-{[(2,3-Dihydro-benzo[1,4]dioxin-6-ylmethyl)-amino]-methyl}-3,6-dihydro-2H-pyridin-1-yl)-1-(6-methoxy-quinolin-4-yl)-ethanol] the value was at most 0.5 µg/mL.

The experiment is the same for the next values; noted with them: read-out: MHK.
On to `COc1ccc2nccc([C@@H](O)CN3CCC[C@@H](CNCc4ccc5c(c4)OCCO5)C3)c2c1` [Example 8, 2-((3S)-{[(2,3-Dihydro-benzo[1,4]dioxin-6-ylmethyl)-amino]-methyl}-piperidin-1-yl)-(1S)-(6-methoxy-quinolin-4-yl)-ethanol], for which the MIC was at most 0.125 µg/mL.
Still for that read-out and setting: for `COc1ccc2ncnc(CCC3(O)CCC(NCc4ccc5c(c4)OCO5)CC3)c2c1` (stereo not shown) [Example 10, 4-[(Benzo[1.3]dioxol-5-ylmethyl)-amino]-1-[2-(6-methoxy-quinazolin-4-yl)-ethyl]-cyclohexanol] the value was at most 0.5 µg/mL; for `CCOc1ccc2nccc(CCC3(O)CCC(NCc4ccc5c(c4)OCO5)CC3)c2c1` (stereo not shown) [Example 17], at most 0.5 µg/mL.
